Measured values as given in ChEMBL document CHEMBL4609984, “Design, synthesis and biological evaluation of imidazole and oxazole fragments as HIV-1 integrase-LEDGF/p75 disruptors and inhibitors of microbial pathogens” (Bioorg Med Chem, 2020).
Values after ≈ are worked out from the molar mass of the structure shown. Active and inactive are the calls of the source. The calls are words filed in the database; no cut-off is given here.

Key:
[1] = target: Human immunodeficiency virus type 1 integrase (Human immunodeficiency virus 1) (UniProt Q7ZJM1); experiment: Inhibition of HIV-1 integrase assessed as inhibition of interaction of HIV-1 IN with LEDGF/p75 (unknown origin) at 10 uM preincubated with enzyme for 30 mins followed by further incubation with LEDGF/p75 for 1 hr by Alphascreen assay relative to control
Sequence of Human immunodeficiency virus type 1 integrase (Human immunodeficiency virus 1) (Q7ZJM1 as listed by the source): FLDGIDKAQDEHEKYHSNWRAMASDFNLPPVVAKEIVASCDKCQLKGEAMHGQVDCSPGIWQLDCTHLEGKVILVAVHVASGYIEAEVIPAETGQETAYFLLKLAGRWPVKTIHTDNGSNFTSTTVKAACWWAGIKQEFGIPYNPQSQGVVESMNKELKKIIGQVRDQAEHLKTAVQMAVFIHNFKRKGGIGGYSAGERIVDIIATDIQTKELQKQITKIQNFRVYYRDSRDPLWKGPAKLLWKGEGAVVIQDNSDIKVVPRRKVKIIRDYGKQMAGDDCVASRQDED

MT4 = experiment: Cytotoxicity against human MT4 cells assessed as reduction in cell viability at 10 uM incubated for 5 days by MTS assay; format: cell-based; conditions: mt4, 120 h
[2] = target: Human immunodeficiency virus type 1 integrase (Human immunodeficiency virus 1, UniProt Q7ZJM1); experiment: Inhibition of HIV-1 integrase assessed as inhibition of interaction of HIV-1 IN with LEDGF/p75 (unknown origin) preincubated with enzyme for 30 mins followed by further incubation with LEDGF/p75 for 1 hr by Alphascreen assay
Sequence of Human immunodeficiency virus type 1 integrase (Q7ZJM1 whole entry): as the sequence (Q7ZJM1 as listed by the source) above

[3] = target: Human immunodeficiency virus type 1 integrase (Human immunodeficiency virus 1) (UniProt Q7ZJM1); experiment: Inhibition of HIV-1 integrase assessed as inhibition of interaction of HIV-1 IN with LEDGF/p75 (unknown origin) at 10 uM incubated for 1 hr by Alphascreen TruHits counter assay
[4] = Cytotoxicity against human MT4 cells assessed as reduction in cell viability incubated for 5 days by MTS assay; format: cell-based
[5] = test system: Human immunodeficiency virus 1; experiment: Antiviral activity against HIV-1 NL4-3 infected in human MT4 cells assessed as reduction in p24 gag protein at 10 uM incubated for 5 days by ELISA; format: functional, organism-based
[6] = test system: Human immunodeficiency virus 1; experiment: Antiviral activity against HIV-1 NL4-3 infected in human MT4 cells assessed as reduction in p24 gag protein incubated for 5 days by ELISA; format: functional, organism-based; conditions: Human immunodeficiency virus 1, NL4-3, MT4, 120 h
Staphylococcus aureus = experiment: Antibacterial activity against Staphylococcus aureus ATCC 25923 assessed as reduction in bacterial growth incubated for 24 hrs by INT dye based assay; format: functional; conditions: ATCC 25923, 24 h
Bacillus cereus = experiment: Antibacterial activity against Bacillus cereus ATCC 11779 assessed as reduction in bacterial growth incubated for 24 hrs by INT dye based assay; format: functional; conditions: ATCC 11779, 24 h
Escherichia coli = experiment: Antibacterial activity against Escherichia coli ATCC 8739 assessed as reduction in bacterial growth incubated for 24 hrs by INT dye based assay; format: functional; conditions: ATCC 8739, 24 h
Pseudomonas aeruginosa = experiment: Antibacterial activity against Pseudomonas aeruginosa ATCC 27858 assessed as reduction in bacterial growth incubated for 24 hrs by INT dye based assay; format: functional; conditions: ATCC 27858, 24 h
Candida tropicalis = experiment: Antimicrobial activity against Candida tropicalis ATCC 750 assessed as reduction in fungal growth incubated for 48 hrs by INT dye based assay; format: functional

Molecule | inhibition [1] [%] | Activity (MT4) | other results
CCCCn1cncc1-c1ccc(F)cc1 | 30 | Non-Toxic | 
Fc1ccc(-c2cncn2C2CC2)cc1 | 31 | Non-Toxic | 
COc1ccc(-c2cncn2-c2ccc(Br)cc2)c(OC)c1 | 52 | Non-Toxic | IC50 [2]: 7 µM; inhibition [3]: Active; CC50 at 120 h [4]: 55.5 µM; Activity [5]: inactive; EC50 [6]: > 10 µM
CCCCn1cncc1-c1ccccc1Cl | 37 | Non-Toxic | 
COc1ccc(-c2cncn2C2CCCCC2)c(OC)c1 | 40 | Non-Toxic | MIC (Staphylococcus aureus): 62.5 µg/mL (≈ 218 µM); MIC (Bacillus cereus): 250 µg/mL (≈ 873 µM); MIC (Escherichia coli): > 250 µg/mL; MIC (Pseudomonas aeruginosa): > 250 µg/mL; MIC (Candida tropicalis; ATCC 750, 48 h): 125 µg/mL (≈ 436 µM)
O=[N+]([O-])c1ccccc1-c1cncn1C1CCCCC1 |  | Non-Toxic | 
CC(C)(C)c1ccc(-c2cncn2C2CCCCC2)cc1 | 62 | Non-Toxic | IC50 [2]: 14.6 µM; inhibition [3]: Active; CC50 at 120 h [4]: 21.8 µM; Activity [5]: inactive; EC50 [6]: > 10 µM; MIC (Staphylococcus aureus): 62.5 µg/mL (≈ 221 µM); MIC (Bacillus cereus): 15.6 µg/mL (≈ 55.2 µM); MIC (Escherichia coli): > 250 µg/mL; MIC (Pseudomonas aeruginosa): > 250 µg/mL; MIC (Candida tropicalis; ATCC 750, 48 h): 31.3 µg/mL (≈ 111 µM)
CC(C)(C)c1ccc(-c2cnco2)cc1 | 35 | Non-Toxic | 
COc1ccc(-c2cncn2C2CC2)c(OC)c1 | 28 | Non-Toxic | 
O=[N+]([O-])c1ccc(-c2cncn2C2CCCCC2)cc1 |  | Non-Toxic | 
Fc1ccc(-c2cnco2)cc1 | 23 | Non-Toxic | 
COc1cccc(-c2cnco2)c1 | 33 | Non-Toxic | 
Brc1ccc(-n2cncc2-c2ccc3c(c2)OCO3)cc1 | 48 | Non-Toxic | 
CCCCn1cncc1-c1ccccc1[N+](=O)[O-] | 30 | Non-Toxic | 
c1ccc(-c2cnco2)cc1 | 31 | Non-Toxic | 
CCCCn1cncc1-c1ccc(C(C)(C)C)cc1 | 56 | Non-Toxic | IC50 [2]: 22.4 µM; inhibition [3]: Active; CC50 at 120 h [4]: 23.9 µM; Activity [5]: inactive; EC50 [6]: > 10 µM; MIC (Staphylococcus aureus): 15.6 µg/mL (≈ 60.8 µM); MIC (Bacillus cereus): 31.3 µg/mL (≈ 122 µM); MIC (Escherichia coli): 250 µg/mL (≈ 975 µM); MIC (Pseudomonas aeruginosa): 250 µg/mL (≈ 975 µM); MIC (Candida tropicalis; ATCC 750, 48 h): 31.3 µg/mL (≈ 122 µM)
CCCCn1cncc1-c1ccc2c(c1)OCO2 | 35 | Non-Toxic | MIC (Bacillus cereus): 31.3 µg/mL (≈ 128 µM); MIC (Escherichia coli): > 250 µg/mL; MIC (Pseudomonas aeruginosa): > 250 µg/mL
O=[N+]([O-])c1ccccc1-c1cnco1 | 30 | Non-Toxic | 
CCCCn1cncc1-c1ccc(OC)cc1OC | 26 | Non-Toxic | 
COc1ccc(-c2cncn2Cc2ccccc2)c(OC)c1 | 17 | Non-Toxic | MIC (Staphylococcus aureus): 62.5 µg/mL (≈ 212 µM); MIC (Bacillus cereus): 125 µg/mL (≈ 425 µM); MIC (Escherichia coli): > 250 µg/mL; MIC (Pseudomonas aeruginosa): > 250 µg/mL; MIC (Candida tropicalis; ATCC 750, 48 h): 250 µg/mL (≈ 849 µM)
COc1cccc(-c2cncn2C2CC2)c1 | 40 | Non-Toxic | 

Molecule | inhibition [1] [%] | Activity (MT4) | other results
Fc1ccc(-c2cncn2-c2ccc(Br)cc2)cc1 | 52 | Non-Toxic | IC50 [2]: 25.1 µM; inhibition [3]: Active; CC50 at 120 h [4]: 48 µM; Activity [5]: inactive; EC50 [6]: > 10 µM
Fc1ccc(-c2cncn2C2CCCCC2)cc1 | 45 | Non-Toxic | 
Clc1ccccc1-c1cnco1 | 33 | Non-Toxic | 
O=[N+]([O-])c1ccc(-c2cnco2)cc1 | 33 | Non-Toxic | 
c1cc2c(cc1-c1cncn1C1CCCCC1)OCO2 | 40 | Non-Toxic | 
Cc1ccc(S(=O)(=O)[C@H]2N=CO[C@@H]2c2ccccc2)cc1 (racemic) | 34 | Non-Toxic | 
CCCCn1cncc1-c1ccc([N+](=O)[O-])cc1 | 27 | Non-Toxic | 
COc1cccc(-c2cncn2Cc2ccccc2)c1 | 21 | Non-Toxic | 
COc1cccc(-c2cncn2C2CCCCC2)c1 | 55 | Non-Toxic | IC50 [2]: 21.9 µM; inhibition [3]: Active; CC50 at 120 h [4]: 27.7 µM; Activity [5]: inactive; EC50 [6]: > 10 µM; MIC (Staphylococcus aureus): 62.5 µg/mL (≈ 244 µM); MIC (Bacillus cereus): 62.5 µg/mL (≈ 244 µM); MIC (Escherichia coli): > 250 µg/mL; MIC (Pseudomonas aeruginosa): > 250 µg/mL; MIC (Candida tropicalis; ATCC 750, 48 h): 62.5 µg/mL (≈ 244 µM)
O=C(O)c1cn(C2CC2)c2cc(N3CCNCC3)c(F)cc2c1=O [CIPROFLOXACIN] |  |  | MIC (Staphylococcus aureus): 0.156 µg/mL (≈ 0.471 µM); MIC (Bacillus cereus): 0.156 µg/mL (≈ 0.471 µM); MIC (Escherichia coli): 0.313 µg/mL (≈ 0.945 µM); MIC (Pseudomonas aeruginosa): 0.313 µg/mL (≈ 0.945 µM)
Cc1ccc(S(=O)(=O)[C@H]2N=CO[C@@H]2c2ccc3c(c2)OCO3)cc1 (racemic) | 33 | Non-Toxic | 
c1ncc(-c2ccc3c(c2)OCO3)o1 | 35 | Non-Toxic | 
Clc1ccccc1-c1cncn1C1CCCCC1 | 31 | Non-Toxic | 
CCCCn1cncc1-c1ccc2c(c1)OCCO2 | 21 | Non-Toxic | 
Fc1ccc(-c2cncn2Cc2ccccc2)cc1 | 25 | Non-Toxic | MIC (Staphylococcus aureus): 62.5 µg/mL (≈ 248 µM); MIC (Bacillus cereus): 125 µg/mL (≈ 495 µM); MIC (Escherichia coli): > 250 µg/mL; MIC (Pseudomonas aeruginosa): > 250 µg/mL; MIC (Candida tropicalis; ATCC 750, 48 h): > 250 µg/mL
c1ccc(Cn2cncc2-c2ccc3c(c2)OCO3)cc1 | 43 | Non-Toxic | 
NYSTATIN |  |  | MIC (Candida tropicalis): 1.25 µg/mL
Cc1ccc(S(=O)(=O)[C@H]2N=CO[C@@H]2c2ccccc2[N+](=O)[O-])cc1 (racemic) | 38 | Non-Toxic | 
COc1ccc(-c2cnco2)c(OC)c1 | 42 | Non-Toxic | 
CCCCn1cncc1-c1cccc(OC)c1 | 51 | Non-Toxic | IC50 [2]: 30.5 µM; inhibition [3]: Active; CC50 at 120 h [4]: 29.6 µM; Activity [5]: inactive; EC50 [6]: > 10 µM; MIC (Staphylococcus aureus): > 250 µg/mL; MIC (Bacillus cereus): 62.5 µg/mL (≈ 271 µM); MIC (Escherichia coli): 125 µg/mL (≈ 543 µM); MIC (Pseudomonas aeruginosa): > 250 µg/mL; MIC (Candida tropicalis; ATCC 750, 48 h): 62.5 µg/mL (≈ 271 µM)
